Earlier results in PMC4474859 (PLoS ONE, 2015).

Tests used:
MmImpα = conditions: in words
Source text: (§1) Affinity assays between NLS peptides and Impα proteins have been performed based in indirect affinity measurements, using Surface Plasmon Resonance (SPR), and ITC [19, 38, 55]. Indirect affinity measurements between NLSs and Impα proteins reported dissociation constants in the nM range and permitted the comparison among these molecules. SPR experiments was only able to estimate the peptide-protein affinity in the μM range which was lately confirmed by ITC experiments.

Impα/Impβ complex = conditions: full length protein vs NLS peptide
Source text: as §1

GSIIRKWN [hPLSCR4 NLS peptide]
binding site on MmImpα (MmImpα): binds only the minor site of MmImpα

full length nucleoplasmin protein: full length nucleoplasmin protein binds to Impα/Impβ complex
increase in affinity compared to just nucleoplasmin NLS peptide (Impα/Impβ complex): 2 fold
